Source: ChEMBL document CHEMBL1773059, “NMS-P937, a 4,5-dihydro-1H-pyrazolo[4,3-h]quinazoline derivative as potent and selective Polo-like kinase 1 inhibitor” (Bioorg Med Chem Lett, 2011)

Assays:
[1] = test system: Mus musculus; assay: Toxicity in CD1 nu/nu mouse xenografted with human HCT116 cells assessed as mortality at 90 mg/kg, po BID administered on days 1 to 2 in weekly scheduling for 4 cycles; assay type: organism-based, HCT-116; design: dose 90 mg/kg, route oral; settings: in vivo
[2] = molecular target: Mitogen-activated protein kinase 1 (Homo sapiens, UniProt P28482); assay: Inhibition of ERK2 assessed as [33P]gamma-ATP incorporation into substrate after 60 mins by gamma counting
[3] = molecular target: Eukaryotic translation initiation factor 2-alpha kinase 3 (Homo sapiens, UniProt Q9NZJ5); assay: Inhibition of PERK assessed as [33P]gamma-ATP incorporation into substrate after 60 mins by gamma counting
[4] = test system: Mus musculus; assay: Toxicity in CD1 nu/nu mouse xenografted with human HCT116 cells assessed as reversible body weight loss at 45 mg/kg, iv BID administered on days 1 to 3 in weekly scheduling for 2 cycles measured on day 15; assay type: organism-based, HCT-116; design: dose 45 mg/kg, route intravenous; settings: in vivo
[5] = molecular target: Aurora kinase A (Homo sapiens, UniProt O14965); assay: Inhibition of Aur-A assessed as [33P]gamma-ATP incorporation into substrate after 60 mins by gamma counting
[6] = molecular target: Cyclin-dependent kinase 1/cyclin B1 (Homo sapiens, UniProt P06493); assay: Inhibition of CDK1/CYCB assessed as [33P]gamma-ATP incorporation into substrate after 60 mins by gamma counting; assay type: protein-complex assay
[7] = molecular target: Serine/threonine-protein kinase haspin (Homo sapiens, UniProt Q8TF76); assay: Inhibition of Haspin assessed as [33P]gamma-ATP incorporation into substrate after 60 mins by gamma counting
[8] = Intrinsic clearance in human liver microsomes at 1 uM; assay type: ADME, Microsome
[9] = Solubility of compound in 10% Tween 80; assay type: physicochemical
[10] = test system: Mus musculus; assay: Toxicity in CD1 nu/nu mouse xenografted with human HCT116 cells assessed as reversible body weight loss at 90 mg/kg, po once daily administered on days 1 to 2 in weekly scheduling for 4 cycles measured on day 36; settings: in vivo
[11] = Intrinsic clearance in rat hepatocytes at 1 uM; assay type: ADME, cell-based, Liver, Hepatocyte
[12] = Inhibition of PDGFR assessed as [33P]gamma-ATP incorporation into substrate after 60 mins by gamma counting
[13] = test system: HCT-116; assay: Antitumor activity against human HCT116 cells xenografted in CD1 nu/nu mouse assessed as tumor growth inhibition at 90 mg/kg, po once daily administered on days 1 to 2 daily in weekly scheduling for 4 cycles measured on day 36; settings: HCT-116, po, 864 h, read-out: TGI
[14] = molecular target: Tyrosine-protein kinase Lyn (Homo sapiens, UniProt P07948); assay: Inhibition of LYN assessed as [33P]gamma-ATP incorporation into substrate after 60 mins by gamma counting
[15] = molecular target: Mitogen-activated protein kinase 14 (Homo sapiens, UniProt Q16539); assay: Inhibition of P38alpha assessed as [33P]gamma-ATP incorporation into substrate after 60 mins by gamma counting
[16] = test system: HCT-116; assay: Antitumor activity against human HCT116 cells xenografted in CD1 nu/nu mouse assessed as tumor growth inhibition at 45 mg/kg, iv BID administered on days 1 to 3 in weekly scheduling for 2 cycles measured on day 24; assay type: functional; settings: HCT-116, 576 h, read-out: TGI
[17] = molecular target: Non-receptor tyrosine-protein kinase TYK2 (Homo sapiens, UniProt P29597); assay: Inhibition of TYK2 assessed as [33P]gamma-ATP incorporation into substrate after 60 mins by gamma counting
[18] = molecular target: Vascular endothelial growth factor receptor 3 (Homo sapiens, UniProt P35916); assay: Inhibition of VEGFR3 assessed as [33P]gamma-ATP incorporation into substrate after 60 mins by gamma counting
[19] = molecular target: Tyrosine-protein kinase ZAP-70 (Homo sapiens, UniProt P43403); assay: Inhibition of ZAP70 assessed as [33P]gamma-ATP incorporation into substrate after 60 mins by gamma counting
[20] = test system: Mus musculus; assay: Toxicity in CD1 nu/nu mouse xenografted with human HCT116 cells assessed as reversible body weight loss at 120 mg/kg, po once daily administered on days 1 to 2 in weekly scheduling for 4 cycles measured on day 29; settings: in vivo
[21] = molecular target: Proto-oncogene tyrosine-protein kinase ROS (Homo sapiens, UniProt P08922); assay: Inhibition of ROS1 assessed as [33P]gamma-ATP incorporation into substrate after 60 mins by gamma counting
[22] = molecular target: Serine/threonine-protein kinase 26 (Homo sapiens, UniProt Q9P289); assay: Inhibition of MST4 assessed as [33P]gamma-ATP incorporation into substrate after 60 mins by gamma counting
[23] = molecular target: Vascular endothelial growth factor receptor 2 (Homo sapiens, UniProt P35968); assay: Inhibition of VEGFR2 assessed as [33P]gamma-ATP incorporation into substrate after 60 mins by gamma counting
[24] = molecular target: CDC7/DBF4 (Cell division cycle 7-related protein kinase/Activator of S phase kinase) (Homo sapiens, UniProt O00311); assay: Inhibition of CDC7/DBF4 assessed as [33P]gamma-ATP incorporation into substrate after 60 mins by gamma counting; assay type: protein-complex assay
[25] = molecular target: Focal adhesion kinase 1 (Homo sapiens, UniProt Q05397); assay: Inhibition of FAK assessed as [33P]gamma-ATP incorporation into substrate after 60 mins by gamma counting
[26] = molecular target: Cyclin-dependent kinase 4/cyclin D1 (Homo sapiens, UniProt P11802); assay: Inhibition of CDK4/CYCD1 assessed as [33P]gamma-ATP incorporation into substrate after 60 mins by gamma counting; assay type: protein-complex assay
[27] = molecular target: Epidermal growth factor receptor (Homo sapiens, UniProt P04626+P00533+Q15303+P21860); assay: Inhibition of EGFR1 assessed as [33P]gamma-ATP incorporation into substrate after 60 mins by gamma counting; assay type: protein assay
[28] = molecular target: Hepatocyte growth factor receptor (Homo sapiens, UniProt P08581); assay: Inhibition of MET assessed as [33P]gamma-ATP incorporation into substrate after 60 mins by gamma counting
[29] = molecular target: Insulin receptor (Homo sapiens, UniProt P06213); assay: Inhibition of IR assessed as [33P]gamma-ATP incorporation into substrate after 60 mins by gamma counting
[30] = molecular target: MAP kinase-activated protein kinase 2 (Homo sapiens, UniProt P49137); assay: Inhibition of MAPKAPK2 assessed as [33P]gamma-ATP incorporation into substrate after 60 mins by gamma counting

Chain of Hepatocyte growth factor receptor (P08581 whole entry): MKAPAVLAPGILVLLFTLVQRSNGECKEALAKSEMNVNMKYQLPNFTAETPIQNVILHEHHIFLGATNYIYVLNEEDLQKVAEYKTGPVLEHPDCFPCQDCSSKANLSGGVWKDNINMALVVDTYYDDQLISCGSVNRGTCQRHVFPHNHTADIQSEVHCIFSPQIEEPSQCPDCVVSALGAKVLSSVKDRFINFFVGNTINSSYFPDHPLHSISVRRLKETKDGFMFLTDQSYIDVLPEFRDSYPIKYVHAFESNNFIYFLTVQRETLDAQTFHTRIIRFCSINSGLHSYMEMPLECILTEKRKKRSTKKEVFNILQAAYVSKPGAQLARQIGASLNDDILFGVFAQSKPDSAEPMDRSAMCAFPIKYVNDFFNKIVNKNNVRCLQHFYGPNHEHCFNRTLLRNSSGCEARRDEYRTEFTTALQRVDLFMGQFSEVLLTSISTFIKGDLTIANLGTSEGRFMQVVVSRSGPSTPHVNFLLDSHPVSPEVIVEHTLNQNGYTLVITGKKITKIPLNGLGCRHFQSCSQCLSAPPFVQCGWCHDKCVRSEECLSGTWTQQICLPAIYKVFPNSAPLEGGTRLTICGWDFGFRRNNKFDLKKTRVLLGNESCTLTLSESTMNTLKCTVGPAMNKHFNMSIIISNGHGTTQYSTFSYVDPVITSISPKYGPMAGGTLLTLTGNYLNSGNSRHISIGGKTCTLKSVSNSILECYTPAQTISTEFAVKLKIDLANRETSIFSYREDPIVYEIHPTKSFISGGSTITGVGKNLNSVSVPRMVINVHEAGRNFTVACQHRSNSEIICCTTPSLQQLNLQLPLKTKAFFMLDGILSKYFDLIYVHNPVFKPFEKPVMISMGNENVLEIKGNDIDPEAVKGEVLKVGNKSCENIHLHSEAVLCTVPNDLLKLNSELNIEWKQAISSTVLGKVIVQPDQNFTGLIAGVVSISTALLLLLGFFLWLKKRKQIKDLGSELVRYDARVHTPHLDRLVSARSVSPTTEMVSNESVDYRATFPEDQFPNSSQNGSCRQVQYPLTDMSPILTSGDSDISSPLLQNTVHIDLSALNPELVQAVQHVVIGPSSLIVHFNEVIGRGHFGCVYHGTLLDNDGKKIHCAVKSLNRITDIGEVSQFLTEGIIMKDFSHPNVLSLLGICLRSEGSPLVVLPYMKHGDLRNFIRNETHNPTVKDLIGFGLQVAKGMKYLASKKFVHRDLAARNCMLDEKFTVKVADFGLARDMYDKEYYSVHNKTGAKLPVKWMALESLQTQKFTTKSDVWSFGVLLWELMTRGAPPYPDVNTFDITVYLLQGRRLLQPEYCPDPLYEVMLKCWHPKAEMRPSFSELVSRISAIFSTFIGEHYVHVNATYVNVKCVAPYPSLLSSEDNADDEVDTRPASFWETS
Chain of Eukaryotic translation initiation factor 2-alpha kinase 3 (Q9NZJ5 whole entry): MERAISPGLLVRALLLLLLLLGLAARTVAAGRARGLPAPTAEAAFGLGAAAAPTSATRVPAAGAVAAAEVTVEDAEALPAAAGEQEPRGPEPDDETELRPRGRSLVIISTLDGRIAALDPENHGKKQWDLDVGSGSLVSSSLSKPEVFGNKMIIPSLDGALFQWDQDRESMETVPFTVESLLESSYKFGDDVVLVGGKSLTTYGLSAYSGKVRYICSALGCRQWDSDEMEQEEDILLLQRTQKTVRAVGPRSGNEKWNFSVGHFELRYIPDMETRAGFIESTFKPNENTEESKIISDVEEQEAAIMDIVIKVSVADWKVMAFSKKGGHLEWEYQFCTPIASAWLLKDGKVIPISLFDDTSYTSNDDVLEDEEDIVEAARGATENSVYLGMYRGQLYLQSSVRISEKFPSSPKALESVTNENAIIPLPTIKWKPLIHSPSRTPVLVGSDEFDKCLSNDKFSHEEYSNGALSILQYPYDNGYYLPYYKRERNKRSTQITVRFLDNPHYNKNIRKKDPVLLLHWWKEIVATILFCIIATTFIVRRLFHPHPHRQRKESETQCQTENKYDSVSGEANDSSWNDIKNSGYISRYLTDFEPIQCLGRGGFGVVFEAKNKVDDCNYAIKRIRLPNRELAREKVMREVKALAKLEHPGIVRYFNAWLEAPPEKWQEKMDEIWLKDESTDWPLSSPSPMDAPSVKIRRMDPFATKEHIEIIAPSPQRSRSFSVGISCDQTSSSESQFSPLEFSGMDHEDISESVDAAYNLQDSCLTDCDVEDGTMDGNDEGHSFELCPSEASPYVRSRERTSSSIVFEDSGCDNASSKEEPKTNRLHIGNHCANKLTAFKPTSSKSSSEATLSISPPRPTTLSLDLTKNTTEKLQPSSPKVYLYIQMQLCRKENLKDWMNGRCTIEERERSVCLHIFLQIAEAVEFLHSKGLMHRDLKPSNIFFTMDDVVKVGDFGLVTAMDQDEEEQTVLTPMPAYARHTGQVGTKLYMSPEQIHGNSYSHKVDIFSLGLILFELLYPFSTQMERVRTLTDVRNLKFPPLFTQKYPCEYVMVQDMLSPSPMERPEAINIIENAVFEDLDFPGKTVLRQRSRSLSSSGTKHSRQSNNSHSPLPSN
Chain of CDC7/DBF4 (Cell division cycle 7-related protein kinase/Activator of S phase kinase) (Q9UBU7 whole entry): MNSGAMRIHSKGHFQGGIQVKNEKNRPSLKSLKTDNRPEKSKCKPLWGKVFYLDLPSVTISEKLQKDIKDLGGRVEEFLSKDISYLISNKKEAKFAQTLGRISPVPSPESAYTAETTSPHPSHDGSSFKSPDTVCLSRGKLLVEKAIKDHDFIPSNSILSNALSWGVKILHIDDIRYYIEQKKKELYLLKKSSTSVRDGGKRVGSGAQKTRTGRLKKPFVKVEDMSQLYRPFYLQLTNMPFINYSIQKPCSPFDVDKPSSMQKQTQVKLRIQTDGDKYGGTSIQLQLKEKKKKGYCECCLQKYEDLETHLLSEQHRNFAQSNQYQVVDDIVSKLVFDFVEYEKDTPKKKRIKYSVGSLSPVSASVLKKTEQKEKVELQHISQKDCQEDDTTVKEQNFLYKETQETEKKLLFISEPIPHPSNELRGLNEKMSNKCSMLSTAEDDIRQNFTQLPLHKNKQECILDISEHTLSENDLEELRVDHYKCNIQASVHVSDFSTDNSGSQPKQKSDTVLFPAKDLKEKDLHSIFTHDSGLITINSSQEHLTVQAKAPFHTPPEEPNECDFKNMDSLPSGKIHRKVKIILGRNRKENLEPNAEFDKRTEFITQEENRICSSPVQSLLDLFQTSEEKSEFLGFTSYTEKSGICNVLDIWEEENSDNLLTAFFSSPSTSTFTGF
Chain of CDC7/DBF4 (Cell division cycle 7-related protein kinase/Activator of S phase kinase) (O00311 whole entry): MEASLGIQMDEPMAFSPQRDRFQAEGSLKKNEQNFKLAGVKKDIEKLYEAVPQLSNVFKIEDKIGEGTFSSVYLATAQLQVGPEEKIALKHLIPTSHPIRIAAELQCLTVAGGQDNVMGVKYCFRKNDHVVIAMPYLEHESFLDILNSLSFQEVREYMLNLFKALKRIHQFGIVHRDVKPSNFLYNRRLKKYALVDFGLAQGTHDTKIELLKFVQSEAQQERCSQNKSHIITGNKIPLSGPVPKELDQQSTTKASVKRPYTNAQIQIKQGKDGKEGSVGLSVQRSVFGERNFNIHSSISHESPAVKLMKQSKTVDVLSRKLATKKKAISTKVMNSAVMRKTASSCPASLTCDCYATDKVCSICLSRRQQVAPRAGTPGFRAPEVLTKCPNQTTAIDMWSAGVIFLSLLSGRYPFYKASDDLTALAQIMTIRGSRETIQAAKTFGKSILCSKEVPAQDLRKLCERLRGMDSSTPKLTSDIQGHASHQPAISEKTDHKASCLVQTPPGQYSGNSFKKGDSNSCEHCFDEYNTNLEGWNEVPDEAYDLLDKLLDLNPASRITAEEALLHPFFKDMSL
Chain of Cyclin-dependent kinase 4/cyclin D1 (P11802 whole entry): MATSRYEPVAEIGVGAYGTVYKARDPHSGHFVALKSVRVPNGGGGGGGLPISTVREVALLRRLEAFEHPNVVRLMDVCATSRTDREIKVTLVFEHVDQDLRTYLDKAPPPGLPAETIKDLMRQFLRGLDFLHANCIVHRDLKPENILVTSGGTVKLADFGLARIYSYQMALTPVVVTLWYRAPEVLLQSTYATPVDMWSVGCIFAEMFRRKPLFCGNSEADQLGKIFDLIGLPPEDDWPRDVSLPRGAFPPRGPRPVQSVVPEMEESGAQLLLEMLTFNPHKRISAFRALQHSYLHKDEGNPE
Chain of Cyclin-dependent kinase 4/cyclin D1 (P24385 whole entry, further chain): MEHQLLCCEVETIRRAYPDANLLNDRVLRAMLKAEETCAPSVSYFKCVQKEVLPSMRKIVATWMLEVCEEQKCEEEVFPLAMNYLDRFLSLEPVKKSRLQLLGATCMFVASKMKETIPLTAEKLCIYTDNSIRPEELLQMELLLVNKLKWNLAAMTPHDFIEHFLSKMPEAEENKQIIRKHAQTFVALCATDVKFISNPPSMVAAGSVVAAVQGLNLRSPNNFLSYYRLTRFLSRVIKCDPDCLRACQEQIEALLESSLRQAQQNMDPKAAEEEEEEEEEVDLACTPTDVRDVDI
Chain of Tyrosine-protein kinase Lyn (P07948 whole entry): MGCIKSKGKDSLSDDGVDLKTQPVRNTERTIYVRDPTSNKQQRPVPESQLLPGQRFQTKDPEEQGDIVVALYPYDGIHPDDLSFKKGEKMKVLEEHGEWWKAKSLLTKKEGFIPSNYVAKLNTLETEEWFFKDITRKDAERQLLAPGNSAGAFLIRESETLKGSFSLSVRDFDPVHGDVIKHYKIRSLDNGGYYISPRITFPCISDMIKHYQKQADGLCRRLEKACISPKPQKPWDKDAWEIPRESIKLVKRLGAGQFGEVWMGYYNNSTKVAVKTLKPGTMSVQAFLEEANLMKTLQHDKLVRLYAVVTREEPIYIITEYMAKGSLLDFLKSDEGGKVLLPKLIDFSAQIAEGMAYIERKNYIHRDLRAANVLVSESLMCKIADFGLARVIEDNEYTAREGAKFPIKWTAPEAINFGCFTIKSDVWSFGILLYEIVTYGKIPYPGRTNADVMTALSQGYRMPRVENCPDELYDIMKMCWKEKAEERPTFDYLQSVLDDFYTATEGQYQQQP

CN1CCN(c2ccc(OC(F)(F)F)c(Nc3ncc4c(n3)-c3c(c(C(N)=O)nn3CCO)CC4)c2)CC1 [ONVANSERTIB]
Activity [1]: Non-toxic
IC50 [2]: > 10 µM
IC50 [3]: > 10 µM
Activity [4]: 16%
IC50 [5]: > 10 µM
IC50 [6]: > 10 µM
IC50 [7]: > 10 µM
CLint scaled at 1 µM [8]: 16.9 mL/min/kg
solubility [9]: > 3400 µg/mL
Activity [10]: 10%
CLint scaled at 1 µM [11]: 165 mL/min/kg
IC50 [12]: > 10 µM
inhibition in vivo at 90 mg/kg [13]: 71%
IC50 [14]: > 10 µM
IC50 [15]: > 10 µM
inhibition in vivo at 45 mg/kg [16]: 83%
IC50 [17]: > 10 µM
IC50 [18]: > 10 µM
IC50 [19]: > 10 µM
Activity [20]: 18%
IC50 [21]: > 10 µM
IC50 [22]: > 10 µM
IC50 [23]: > 10 µM
IC50 [24]: > 10 µM
IC50 [25]: > 10 µM
IC50 [26]: > 10 µM
IC50 [27]: > 10 µM
IC50 [28]: > 10 µM
IC50 [29]: > 10 µM
IC50 [30]: > 10 µM
